The results in this text go back to ChEMBL document CHEMBL1153880, “Synthesis and adrenolytic activity of 1-(1H-indol-4-yloxy)-3-{[2-(2-methoxyphenoxy)ethyl]amino}propan-2-ol and its enantiomers. Part 1” (Eur J Med Chem, 2009).

A short description of data set [1]: Therapeutic index, ratio of LD50 for Wistar rat to antiarrhythmic ED50 for Wistar rat. Type of data set: organism-based, Heart. The following applies: in vivo, read-out: TI.
Data set [2] can be described thus: Acute toxicity in iv dosed anaesthetized Wistar rat. It is filed as organism-based. As to conditions: in vivo.
Data set [3] deals with Rattus norvegicus. In words: Antiarrhythmic activity against adrenaline-induced arrhythmia in iv dosed anaesthetized Wistar rat assessed as inhibition of premature ventricular beats pretreated 60 mins prior to adrenaline challenge. Type of data set: functional. As to conditions: Heart.
Data set [4] concerns Rattus norvegicus. In words: Effect on heart rate in anaesthetized Wistar rat assessed as number of beats per minute at 1 mg/kg, iv after 1 min by electrocardiography. Type of data set: functional.
The subject of data set [5] is Rattus norvegicus. The data set can be described thus: Effect on heart rate in anaesthetized Wistar rat assessed as number of beats per minute at 1 mg/kg, iv after 5 mins by electrocardiography. It is filed as functional.
Data set [6] concerns Rattus norvegicus. The data set can be described thus: Effect on electrocardiogram in anaesthetized Wistar rat assessed as change in P-Q interval at 1 mg/kg, iv after 1 min by electrocardiography. It is filed as functional.

The LD50 is the dose expected to kill half of the subjects tested. Read a low LD50 as greater toxicity. For orientation: ED50 means the dose that gives a 50% effect, or the effect in half of the subjects. On to `CC(C)NCC(O)COc1cccc2[nH]ccc12` (stereo not drawn) [PINDOLOL], for which, in data set [1], the selectivity ratio came out at 37. The same molecule returned an LD50 in data set [2] of 39 mg/kg. In addition, in the data set on Rattus norvegicus [3], the ED50 is 1.05 mg/kg.

The molecule `COc1ccccc1OCCNCC(O)COc1cccc2[nH]c3ccccc3c12` (stereo not drawn) [CARVEDILOL] had an LD50 in data set [2] of 25 mg/kg. The ED50 in the data set on Rattus norvegicus [3] turned out to be 0.25 mg/kg. Also, the figures for the Activity in the data set on Rattus norvegicus [4], with Rattus norvegicus [5] and in the data set with Rattus norvegicus [6] were 345.2 min⁻¹, 340.3 min⁻¹ and 50 ms, respectively.
